Values quoted from earlier work, collected in US20050013939A1, “Boron-based wood preservatives and treatment of wood with boron-based preservatives” (priority 2001, published 2005).

Experiments:
[1] = test system: Insect; details: boric acid equivalents typically required in wood
[2] = test system: fungal decay; details: boric acid equivalents typically required in wood

OB(O)O [boric acid]
% wt/wt BAE required, Insect protection [1]: 0.25 % wt/wt | % wt/wt BAE required, Fungicidal protection [2]: 0.75 % wt/wt
